Experimental data published in PMC3969379, “Neospora caninum Calcium-Dependent Protein Kinase 1 Is an Effective Drug Target for Neosporosis Therapy” (PLoS ONE, 2014).
pEC50, pIC50: −log10 of the molar value. Where two headings read alike, the source gives them in different places.

Legend:
N. caninum tachyzoites = test: N. caninum-β-gal tachyzoite proliferation in HFF, 3 days; type: cell-based; conditions: Neospora caninum, read-out: EC50 N. caninum
Experimental: Transgenic N. caninum tachyzoites expressing beta-galactosidase under a constitutive promoter (N. caninum-β-gal) were grown in Vero cells and were separated from host cell components as previously described. Human foreskin fibroblasts (HFF) at 5×10^3 cells per well in phenol-red free culture medium were incubated at 37°C with 5% CO2 and were grown to confluence in a 96-well plate. […] Cultures were infected with N. caninum-β-gal tachyzoites (1×10^3 per well). After three days at 37°C/5% CO2, plates were centrifuged at 500 g, medium was removed, and cell cultures were lysed in PBS containing 0.05% Triton-X-100. After addition of 10 μL of 5 mM chlorophenol red-b-D-galactopyranoside (CPRG; Roche Diagnostics, Rotkreuz, Switzerland) dissolved in PBS, the absorption shift was measured at 570 nm wavelength at various time points on a VersaMax multiplate reader (Bucher Biotec, Basel, Switzerland). The activity, measured as the release of chlorophenol red over time, was proportional to the number of life parasites down to 50 per well as determined in pilot assays. EC50 values were calculated after the logit-log-transformation of relative growth and subsequent regression analysis by the corresponding software tool contained in the Excel software package (Microsoft, Seattle, WA).

T. gondii = conditions: cited from earlier work
recombinant NcCDPK1 = recombinant NcCDPK1 (Neospora caninum, UniProt F0V9W9); test: biochemical
recombinant NcCDPK1, sequence (F0V9W9 entry or part of it): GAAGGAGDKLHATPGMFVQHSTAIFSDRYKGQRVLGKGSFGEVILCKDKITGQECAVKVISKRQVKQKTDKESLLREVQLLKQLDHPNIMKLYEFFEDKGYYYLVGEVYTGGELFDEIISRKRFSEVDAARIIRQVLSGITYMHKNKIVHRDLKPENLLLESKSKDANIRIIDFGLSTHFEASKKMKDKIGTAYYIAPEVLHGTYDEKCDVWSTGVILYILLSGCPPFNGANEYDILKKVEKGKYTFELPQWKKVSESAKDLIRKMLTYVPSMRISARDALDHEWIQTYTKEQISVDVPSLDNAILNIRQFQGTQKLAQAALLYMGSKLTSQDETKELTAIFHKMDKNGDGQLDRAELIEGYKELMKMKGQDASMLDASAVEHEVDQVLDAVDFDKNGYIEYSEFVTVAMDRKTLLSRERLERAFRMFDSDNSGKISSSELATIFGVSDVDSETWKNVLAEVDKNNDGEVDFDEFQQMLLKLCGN
Experimental: Protein kinase activity of recombinant NcCDPK1 and inhibition of its kinase phosphorylation properties by BKIs was measured in a non-radioactive assay using Kinase-Glo luciferase reagent (Promega, Madison, WI). This luminescence based assay measures kinase activity in the presence or absence of inhibitors by reporting changes in initial ATP concentration after NcCDPK1 phosphorylation of biotinylated Syntide-2 peptide substrate (Biotin-C6-[…]) (BioSyntide-2) (American Peptide Company, Inc. Sunnyvale, CA), [40]. […] The reaction was initiated by the addition of 10 μM ATP and incubated for 90 minutes at 30°C. Changes in initial ATP concentration was evaluated as a luminescence readout using a MicroBeta2 multi-label plate reader (Perkin Elmer, Waltham, MA).

malaria transmission = test system: malaria transmission; design: method as in PMID 24123773; conditions: cited from earlier work
N. caninum = N. caninum infected Balb/c mice, cerebral parasite load by real time PCR; type: in vivo
[1] = test system: N. caninum tachyzoites in HFF; test: Host cell invasion assay, BKI treatment pre- and post-infection (β-galactosidase); type: cell-based, Neospora caninum
Experimental: Control wells with equal volume of DMSO were also included per reaction plate. Two hours after initiating the experiment, the cells were washed. Selected untreated assay plates were treated with 1294 for 60 minutes after the initial wash with medium. All the assay plates were incubated for one hour before a final wash and reading the beta-galactosidase activity.

[2] = cited from earlier work
Cryptosporidium parvum = test system: Cryptosporidium parvum; design: method as in PMID 23878324; conditions: in vitro and in vivo; cited from earlier work
[3] = 72 h, concentration that inhibits cell growth by 50%, tachyzoites in HFF, 3 days
[4] = concentration that inhibits protein kinase activity by 50%, 10 μM ATP, 40 μM BioSyntide-2, 3.3 nM enzyme, read-out: IC50 NcCDPK1

Q: With `CC(C)(C)n1nc(-c2ccc3ccccc3c2)c2c(N)ncnc21` [11b] as the molecule, how does the pEC50 (N. caninum tachyzoites; [3]) read?
A: Its pEC50 is 6.85.

Q: What about the pEC50 (T. gondii) of the same molecule?
A: Its pEC50 is 6.46.

Q: What about the pIC50 (recombinant NcCDPK1; [4]) of the same molecule?
A: The pIC50 was 8.77.

Q: With `CCOc1ccc2cc(-c3nn(C4CCN(C)CC4)c4ncnc(N)c34)ccc2c1` [15h] as the molecule, how does the pEC50 (N. caninum tachyzoites; [3]) read?
A: Its pEC50 is 7.26.

Q: And the pEC50 (T. gondii)?
A: Its pEC50 is 7.30.

Q: What about the pIC50 (recombinant NcCDPK1; [4]) of the same molecule?
A: Its pIC50 is 8.85.

Q: With `CCOc1ccc2cc(-c3nn(C4CCN(CC)CC4)c4ncnc(N)c34)ccc2c1` [15i] as the molecule, how does the pEC50 (N. caninum tachyzoites; [3]) read?
A: The pEC50 was 7.00.

Q: What about the pEC50 (T. gondii) of the same molecule?
A: Its pEC50 is 7.05.

Q: What about the pIC50 (recombinant NcCDPK1; [4]) of the same molecule?
A: The pIC50 was 8.64.

Q: With `CCOc1ccc2cc(-c3nn(CC4CCNCC4)c4ncnc(N)c34)ccc2c1` [15n] as the molecule, how does the pEC50 (N. caninum tachyzoites; [3]) read?
A: Its pEC50 is 7.30.

Q: And the pEC50 (T. gondii)?
A: Its pEC50 is 7.28.

Q: With `CCOc1ccc2cc(-c3nn(CC4CCNCC4)c4ncnc(N)c34)ccc2n1` [16n] as the molecule, how does the pEC50 (N. caninum tachyzoites; [3]) read?
A: The pEC50 was 7.31.

Q: And the pIC50 (recombinant NcCDPK1; [4])?
A: The pIC50 was 8.77.

Q: With `CCOc1ccc2cc(-c3nn(CC4CCN(C)CC4)c4ncnc(N)c34)ccc2c1` [compound 1294] as the molecule, how does the pEC50 (N. caninum tachyzoites; HFF-3, 72 h) read?
A: The pEC50 was 7.49.

Q: And the malaria transmission blocking (malaria transmission)?
A: The malaria transmission blocking was “excellent malaria transmission blocking properties”.

Q: What about the “cerebral parasite load vs placebo group” value (N. caninum; group B: 50 mg/kg oral daily from day 3 post infection for 5 days, P = 0.0139) of the same molecule?
A: Its value is “tendency towards reduced parasite load”.

Q: What about the “cerebral parasite load vs placebo group” value (N. caninum; group C: 50 mg/kg oral daily from day 3 post infection for 10 days, P = 0.0047) of the same molecule?
A: The value was “clearly the most effective”.

Q: What about the “reduction of cerebral parasite burden compared to untreated control” value (N. caninum; oral 50 mg/kg for 5 days, established murine neosporosis) of the same molecule?
A: The value was 10 fold.

Q: And the “beta-galactosidase activity (host cell invasion)” value (from here on “beta-galactosidase activity”) ([1]; 5 μM added after the infection phase of 2 hours, p>0.2)?
A: Its value is “no difference”.

Q: What about the “beta-galactosidase activity” value ([1]; 5 μM added at 60, 90 and 115 minutes after initiation of infection) of the same molecule?
A: Its value is “no significant difference”.

Q: What about the “beta-galactosidase activity” value ([1]; 5 μM added at initiation of HFF infection, 2 hours, vs 1266 or DMSO, p<0.001) of the same molecule?
A: The value was “significant decrease”.

Q: What about the pEC50 (T. gondii) of the same molecule?
A: Its pEC50 is 6.86.

Q: And the pharmacokinetic data [2]?
A: Its pharmacokinetic data is “favorable absorption with low clearance”.

Q: What about the “toxicity in mammalian cells and rodents” value ([2]; in vivo) of the same molecule?
A: Its value is “low toxicity”.

Q: What about the “activity against Cryptosporidium parvum cell growth” value (Cryptosporidium parvum) of the same molecule?
A: Its value is “profound in vitro and in vivo activity”.

Q: What about the pIC50 (recombinant NcCDPK1) of the same molecule?
A: The pIC50 was 8.59.

Q: With `CCOc1ccc2cc(-c3nn(CC4CCOCC4)c4ncnc(N)c34)ccc2n1` [compound 1412] as the molecule, how does the pEC50 (N. caninum tachyzoites; [3]) read?
A: The pEC50 was 6.92.

Q: And the pIC50 (recombinant NcCDPK1; [4])?
A: Its pIC50 is 8.70.
